Reference: US20190327974A1, “SYNERGISTS FOR IMPROVED PESTICIDES” (priority 2017, published 2019)

Key:
Experiment in all cases: Protease selectivity panel
Type in all cases: biochemical
Settings in all cases: 100 μM compound, n = 2
Factor-Xa = target: T1, Factor-Xa (Homo sapiens, UniProt P00742)
T1 construct: Factor Xa; Calbiochem; B76791; purchased Calbiochem
Procedure: (§1) Test compounds were dissolved in 100% DMSO to make 10 mM stock. Final compound concentration in assay is […]. Compounds were tested in duplicate wells at single concentration and the final concentration of DMSO in all assays was kept at 1%. Five reference compounds, AEBSF, Carfilzomib, Granzyme B Inhibitor II, Dec-RVKR-CMK, and Teneligliptin hydrobromide, were tested in an identical manner with 8 concentration points at 5× dilutions.

Prolyl Oligopeptidase = target: T2, Prolyl Oligopeptidase (Homo sapiens, UniProt P48147)
T2 construct: purchased R&D Systems
T2 sequence (P48147 1-710): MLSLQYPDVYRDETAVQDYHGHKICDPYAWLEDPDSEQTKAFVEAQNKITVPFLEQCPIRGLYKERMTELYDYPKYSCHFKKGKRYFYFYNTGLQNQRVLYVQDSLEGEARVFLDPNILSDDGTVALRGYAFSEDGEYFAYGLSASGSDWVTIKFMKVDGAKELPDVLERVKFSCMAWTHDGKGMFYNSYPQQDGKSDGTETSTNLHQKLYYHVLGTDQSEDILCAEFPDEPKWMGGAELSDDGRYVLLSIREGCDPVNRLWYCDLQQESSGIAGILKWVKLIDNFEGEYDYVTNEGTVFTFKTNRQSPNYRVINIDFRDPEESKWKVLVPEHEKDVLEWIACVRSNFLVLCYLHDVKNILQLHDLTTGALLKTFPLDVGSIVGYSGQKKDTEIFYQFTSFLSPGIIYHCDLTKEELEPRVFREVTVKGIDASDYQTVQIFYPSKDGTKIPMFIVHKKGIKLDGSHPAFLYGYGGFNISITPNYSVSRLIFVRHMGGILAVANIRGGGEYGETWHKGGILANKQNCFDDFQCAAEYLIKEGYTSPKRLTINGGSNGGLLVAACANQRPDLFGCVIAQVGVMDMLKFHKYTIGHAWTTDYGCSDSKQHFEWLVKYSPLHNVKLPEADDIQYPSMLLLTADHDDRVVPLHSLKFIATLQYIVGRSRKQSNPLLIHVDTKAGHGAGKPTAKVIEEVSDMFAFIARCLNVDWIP
Procedure: as §1

Thrombin = target: T3, Thrombin (Homo sapiens, UniProt P00734)
T3 construct: Thrombin; purchased R&D Systems
Procedure: as §1

Kallikrein13 = target: T4, Kallikrein13 (Homo sapiens, UniProt Q9UKR3)
T4 construct: purchased R&D Systems
T4 sequence (Q9UKR3 26-277 limits assumed): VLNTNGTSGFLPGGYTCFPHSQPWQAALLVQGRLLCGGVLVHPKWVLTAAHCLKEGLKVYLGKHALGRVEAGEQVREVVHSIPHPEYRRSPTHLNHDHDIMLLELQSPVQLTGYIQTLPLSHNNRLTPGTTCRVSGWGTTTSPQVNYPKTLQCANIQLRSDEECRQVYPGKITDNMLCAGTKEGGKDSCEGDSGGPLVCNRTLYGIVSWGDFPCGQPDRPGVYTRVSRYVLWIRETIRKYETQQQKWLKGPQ
Procedure: as §1

tPA = target: T5, tPA (Homo sapiens, UniProt P00750)
T5 construct: purchased R&D Systems
Procedure: as §1

HTRA2 = target: T6, HTRA2 (Homo sapiens, UniProt O43464)
T6 construct: purchased R&D Systems
T6 sequence (O43464 134-458): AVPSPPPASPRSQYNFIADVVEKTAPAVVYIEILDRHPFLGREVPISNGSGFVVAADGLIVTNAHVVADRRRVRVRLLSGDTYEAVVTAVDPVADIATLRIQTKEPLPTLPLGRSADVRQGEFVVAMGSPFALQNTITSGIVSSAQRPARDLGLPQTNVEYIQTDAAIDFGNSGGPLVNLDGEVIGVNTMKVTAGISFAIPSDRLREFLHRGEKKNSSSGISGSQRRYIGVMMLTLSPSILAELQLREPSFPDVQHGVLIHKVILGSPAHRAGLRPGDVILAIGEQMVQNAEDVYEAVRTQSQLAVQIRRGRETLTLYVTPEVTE
Procedure: as §1

Kallikrein11 = target: T7, Kallikrein11 (Homo sapiens, UniProt Q9UBX7)
T7 construct: purchased R&D Systems
T7 sequence (Q9UBX7 54-282): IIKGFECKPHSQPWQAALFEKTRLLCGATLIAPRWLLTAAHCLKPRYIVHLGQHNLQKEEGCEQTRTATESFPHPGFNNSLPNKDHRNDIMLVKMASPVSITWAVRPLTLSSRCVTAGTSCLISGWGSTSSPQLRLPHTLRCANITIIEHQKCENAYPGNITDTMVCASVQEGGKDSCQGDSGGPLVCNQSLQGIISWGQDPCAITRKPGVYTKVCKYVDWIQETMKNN
Procedure: as §1

Factor VII = target: T8, Factor VII (Homo sapiens, UniProt P08709)
T8 construct: purchased R&D Systems
Procedure: as §1

Plasma-Kallikrein = target: T9, Plasma-Kallikrein (Homo sapiens, UniProt P03952)
T9 construct: purchased R&D Systems
Procedure: as §1

Plasmin = target: T10, Plasmin (Homo sapiens, UniProt P00747)
T10 construct: purchased R&D Systems
Procedure: as §1

PSMB8 = target: T11, PSMB8 (Homo sapiens, UniProt P28062)
T11 construct: purchased BOSTON-BIOCHEM
Procedure: as §1

Spinesin = target: T12, Spinesin (Homo sapiens, UniProt Q9H3S3)
T12 construct: purchased R&D Systems
Procedure: as §1

DPP9 = target: T13, DPP9 (Homo sapiens, UniProt Q86TI2)
T13 construct: purchased ENZO
Procedure: as §1

GranzymeA = target: T14, GranzymeA (Homo sapiens, UniProt P12544)
T14 construct: purchased ENZO
T14 sequence (P12544 29-262): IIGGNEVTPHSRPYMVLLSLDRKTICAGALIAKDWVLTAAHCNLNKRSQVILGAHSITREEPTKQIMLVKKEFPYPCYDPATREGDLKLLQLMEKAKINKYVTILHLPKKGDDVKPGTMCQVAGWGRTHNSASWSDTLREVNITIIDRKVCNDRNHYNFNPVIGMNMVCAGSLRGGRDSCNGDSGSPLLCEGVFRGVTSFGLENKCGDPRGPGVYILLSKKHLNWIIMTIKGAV
Procedure: as §1

PSMB5 = target: T15, PSMB5 (Homo sapiens, UniProt P28074)
T15 construct: purchased BOSTON-BIOCHEM
Procedure: as §1

T12 sequence (Q9H3S3 218-457 limits assumed): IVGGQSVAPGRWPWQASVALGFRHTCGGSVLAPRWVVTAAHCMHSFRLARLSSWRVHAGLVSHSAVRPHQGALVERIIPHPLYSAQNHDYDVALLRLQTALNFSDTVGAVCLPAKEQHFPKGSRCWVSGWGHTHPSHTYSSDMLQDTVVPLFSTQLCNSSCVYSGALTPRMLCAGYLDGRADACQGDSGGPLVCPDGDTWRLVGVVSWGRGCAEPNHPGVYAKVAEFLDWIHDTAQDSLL
T10 sequence (P00747 581-810 limits assumed): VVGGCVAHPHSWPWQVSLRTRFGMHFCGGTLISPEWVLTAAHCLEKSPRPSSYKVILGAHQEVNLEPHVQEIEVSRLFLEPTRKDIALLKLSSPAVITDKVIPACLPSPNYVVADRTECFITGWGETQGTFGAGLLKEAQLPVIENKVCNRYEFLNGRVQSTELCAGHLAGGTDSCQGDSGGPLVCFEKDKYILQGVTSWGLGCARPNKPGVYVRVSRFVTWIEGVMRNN
T10 sequence (P00747 97-580 partner limits assumed): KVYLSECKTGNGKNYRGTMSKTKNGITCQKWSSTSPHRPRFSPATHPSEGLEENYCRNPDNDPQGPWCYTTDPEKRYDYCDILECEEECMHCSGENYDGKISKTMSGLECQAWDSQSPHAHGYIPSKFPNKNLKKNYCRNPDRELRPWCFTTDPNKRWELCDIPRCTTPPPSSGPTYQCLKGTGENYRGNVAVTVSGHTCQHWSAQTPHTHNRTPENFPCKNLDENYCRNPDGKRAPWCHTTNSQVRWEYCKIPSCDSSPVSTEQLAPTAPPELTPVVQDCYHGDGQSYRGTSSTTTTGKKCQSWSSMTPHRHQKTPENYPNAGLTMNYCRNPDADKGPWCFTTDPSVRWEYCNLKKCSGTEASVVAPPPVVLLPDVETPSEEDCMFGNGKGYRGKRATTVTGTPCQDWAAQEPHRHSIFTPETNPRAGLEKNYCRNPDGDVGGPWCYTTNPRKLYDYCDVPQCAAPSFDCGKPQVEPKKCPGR
T13 sequence (Q86TI2 whole entry): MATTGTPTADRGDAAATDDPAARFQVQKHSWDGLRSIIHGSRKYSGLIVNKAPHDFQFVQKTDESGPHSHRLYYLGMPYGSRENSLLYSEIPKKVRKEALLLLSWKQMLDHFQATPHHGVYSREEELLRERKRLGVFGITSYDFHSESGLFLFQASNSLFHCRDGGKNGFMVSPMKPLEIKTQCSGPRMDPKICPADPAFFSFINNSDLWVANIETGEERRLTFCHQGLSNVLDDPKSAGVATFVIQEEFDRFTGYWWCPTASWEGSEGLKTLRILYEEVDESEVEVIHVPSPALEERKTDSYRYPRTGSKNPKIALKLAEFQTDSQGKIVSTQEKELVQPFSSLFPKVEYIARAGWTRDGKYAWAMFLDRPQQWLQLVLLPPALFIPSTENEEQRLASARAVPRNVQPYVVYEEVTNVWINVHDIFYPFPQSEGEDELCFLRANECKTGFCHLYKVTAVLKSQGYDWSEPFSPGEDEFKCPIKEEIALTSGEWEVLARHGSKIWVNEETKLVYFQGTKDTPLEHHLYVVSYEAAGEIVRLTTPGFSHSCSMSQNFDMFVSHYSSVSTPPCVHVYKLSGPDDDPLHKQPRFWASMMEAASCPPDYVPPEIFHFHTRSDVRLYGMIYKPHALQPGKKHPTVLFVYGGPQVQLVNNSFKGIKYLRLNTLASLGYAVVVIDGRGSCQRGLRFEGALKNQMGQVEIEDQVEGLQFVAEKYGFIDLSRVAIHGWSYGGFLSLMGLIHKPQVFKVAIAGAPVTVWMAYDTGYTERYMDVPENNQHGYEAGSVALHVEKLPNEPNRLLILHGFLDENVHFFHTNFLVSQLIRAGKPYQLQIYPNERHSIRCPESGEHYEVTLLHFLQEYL
T9 sequence (P03952 20-638): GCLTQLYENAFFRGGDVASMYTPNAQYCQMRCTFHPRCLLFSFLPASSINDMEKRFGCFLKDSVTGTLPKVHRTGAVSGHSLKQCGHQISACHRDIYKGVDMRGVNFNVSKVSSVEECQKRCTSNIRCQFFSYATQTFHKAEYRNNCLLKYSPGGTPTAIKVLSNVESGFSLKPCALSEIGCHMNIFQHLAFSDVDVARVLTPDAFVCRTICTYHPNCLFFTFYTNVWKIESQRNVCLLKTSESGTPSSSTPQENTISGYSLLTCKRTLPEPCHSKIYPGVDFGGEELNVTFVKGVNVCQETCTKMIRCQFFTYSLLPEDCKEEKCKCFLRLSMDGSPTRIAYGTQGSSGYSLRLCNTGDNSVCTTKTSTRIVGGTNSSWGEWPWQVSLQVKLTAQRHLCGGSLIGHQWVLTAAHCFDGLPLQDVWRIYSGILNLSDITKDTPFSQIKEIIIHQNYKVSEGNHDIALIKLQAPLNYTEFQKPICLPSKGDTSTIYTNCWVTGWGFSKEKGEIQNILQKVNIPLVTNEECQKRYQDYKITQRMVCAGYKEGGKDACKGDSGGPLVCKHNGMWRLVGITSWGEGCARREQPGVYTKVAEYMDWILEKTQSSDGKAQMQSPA
T8 sequence (P08709 213-466 limits assumed): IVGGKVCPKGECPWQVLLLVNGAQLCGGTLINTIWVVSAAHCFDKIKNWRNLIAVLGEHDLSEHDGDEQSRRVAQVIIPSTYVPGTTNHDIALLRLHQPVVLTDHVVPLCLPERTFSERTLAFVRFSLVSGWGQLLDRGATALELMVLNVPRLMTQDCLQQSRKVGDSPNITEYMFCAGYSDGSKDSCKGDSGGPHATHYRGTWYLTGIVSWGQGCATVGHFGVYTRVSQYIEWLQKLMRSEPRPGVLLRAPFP
T8 sequence (P08709 61-212 partner limits assumed): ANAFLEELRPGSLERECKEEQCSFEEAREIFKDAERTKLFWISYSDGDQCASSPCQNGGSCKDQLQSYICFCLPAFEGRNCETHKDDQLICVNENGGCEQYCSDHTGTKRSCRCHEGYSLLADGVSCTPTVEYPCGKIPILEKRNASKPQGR
T8 sequence (P13726 33-251 partner limits assumed): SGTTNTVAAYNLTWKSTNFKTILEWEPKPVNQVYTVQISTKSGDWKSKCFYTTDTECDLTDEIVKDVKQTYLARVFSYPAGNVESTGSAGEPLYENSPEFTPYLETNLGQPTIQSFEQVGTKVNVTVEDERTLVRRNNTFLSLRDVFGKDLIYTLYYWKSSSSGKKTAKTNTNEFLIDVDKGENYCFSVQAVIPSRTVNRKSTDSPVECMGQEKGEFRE
T5 sequence (P00750 36-562): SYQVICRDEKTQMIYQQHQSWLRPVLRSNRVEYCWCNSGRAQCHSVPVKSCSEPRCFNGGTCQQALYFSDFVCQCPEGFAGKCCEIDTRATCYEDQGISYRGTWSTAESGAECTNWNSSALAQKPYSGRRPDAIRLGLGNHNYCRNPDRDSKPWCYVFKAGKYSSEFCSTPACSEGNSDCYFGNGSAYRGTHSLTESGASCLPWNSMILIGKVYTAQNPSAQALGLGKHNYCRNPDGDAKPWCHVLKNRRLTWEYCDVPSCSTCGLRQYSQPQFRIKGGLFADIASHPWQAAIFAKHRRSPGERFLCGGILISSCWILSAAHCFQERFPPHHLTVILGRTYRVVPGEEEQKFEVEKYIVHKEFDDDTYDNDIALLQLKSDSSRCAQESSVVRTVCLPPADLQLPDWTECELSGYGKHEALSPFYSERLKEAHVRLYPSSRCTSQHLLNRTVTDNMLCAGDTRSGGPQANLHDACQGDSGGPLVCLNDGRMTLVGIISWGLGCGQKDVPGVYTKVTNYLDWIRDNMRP
T1 sequence (P00742 235-488 limits assumed): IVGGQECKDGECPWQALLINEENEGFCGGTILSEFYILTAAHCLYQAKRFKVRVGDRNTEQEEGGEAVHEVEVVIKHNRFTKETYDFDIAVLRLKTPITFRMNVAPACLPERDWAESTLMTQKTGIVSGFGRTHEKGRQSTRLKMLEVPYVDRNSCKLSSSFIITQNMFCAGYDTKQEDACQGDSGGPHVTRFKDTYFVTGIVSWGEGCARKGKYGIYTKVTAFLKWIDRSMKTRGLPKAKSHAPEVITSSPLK
T1 sequence (P00742 41-179 partner limits assumed): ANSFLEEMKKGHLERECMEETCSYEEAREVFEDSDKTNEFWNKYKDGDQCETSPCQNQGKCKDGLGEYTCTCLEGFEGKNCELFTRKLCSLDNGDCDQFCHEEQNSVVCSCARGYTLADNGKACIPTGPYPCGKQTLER

SMILES	inhibition at 100 µM (Factor-Xa)	inhibition at 100 µM (Prolyl Oligopeptidase)	inhibition at 100 µM (Thrombin)	inhibition at 100 µM (Kallikrein13)	inhibition at 100 µM (tPA)	inhibition at 100 µM (HTRA2)	inhibition at 100 µM (Kallikrein11)	inhibition at 100 µM (Factor VII)	inhibition at 100 µM (Plasma-Kallikrein)	inhibition at 100 µM (Plasmin)	inhibition at 100 µM (PSMB8)	inhibition at 100 µM (Spinesin)	inhibition at 100 µM (DPP9)	inhibition at 100 µM (GranzymeA)	inhibition at 100 µM (PSMB5)
OB(O)c1cc(Br)cc(OCc2ccccc2)c1 [Compound 3.9]	26%	48%	54%	-1%	40%	28%	-148%	26%	41%	16%	52%	13%	75%	23%	34%
OB(O)c1cc(Br)cc(Oc2ccccc2)c1 [Compound 3.10, 3-Bromo-5-phenoxyfenylboronic acid]	35%	30%	58%	0%	19%	2%	-43%	53%	64%	-2%	49%	34%	71%	12%	2%
OB(O)c1cc(Br)cc(N2CCCC2)c1 [Compound 3]	53%	61%	32%	3%	26%	23%	-71%	15%	6%	13%	19%	26%	45%	12%	3%
